Experimental data taken from US20160022636A1, “PHYSIOLOGICAL LIGANDS FOR GPR139” (JANSSEN PHARMACEUTICA NV, priority 2013, published 2016).
Several values for one entry are separate records, joined by “and”; a condition that tells them apart may be missing. Equal entries are not always repeated. Where two headings read alike, the source gives them in different places.

Experiments:
[1] = target: T1, mouse GPR139 (Mus musculus, UniProt Q80UC8); assay: GTPγS binding dose response, COS7 membranes co-transfected with mouse GPR139 and GO2Q; assay type: biochemical; conditions: mouse GPR139, FIG. 2 C and D
T1 construct: expressed in transfected cells; host or cells: COS7
T1 sequence (Q80UC8 1-345): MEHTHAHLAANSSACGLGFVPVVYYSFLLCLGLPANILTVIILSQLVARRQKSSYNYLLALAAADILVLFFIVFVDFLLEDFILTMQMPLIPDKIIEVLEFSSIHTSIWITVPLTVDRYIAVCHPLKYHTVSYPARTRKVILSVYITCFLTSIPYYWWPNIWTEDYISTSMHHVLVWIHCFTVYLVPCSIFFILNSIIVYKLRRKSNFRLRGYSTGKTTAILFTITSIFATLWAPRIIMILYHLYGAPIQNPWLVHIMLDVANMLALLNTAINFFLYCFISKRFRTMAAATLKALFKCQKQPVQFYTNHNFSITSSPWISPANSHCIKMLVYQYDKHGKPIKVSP
Excerpt: (§1) FIG. 2: Tryptophan, phenylalanine, and their derivatives activate GPR139. Human (A and B) or mouse (C and D) GPR139 were co-transfected with chimeric G-protein GO2Q into COS7 cells. Cell membranes from transfected cells were used in GTPγS binding studies using various ligands at different concentrations to stimulate GPR139. Membranes from COS7 cells transfected by GO2Q were used as the controls (E and F).

[2] = target: T2, GPR139 (Homo sapiens, UniProt Q6DWJ6); assay: GTPγS binding dose response, COS7 membranes co-transfected with human GPR139 and GO2Q; assay type: biochemical; set-up: expressed in transfected cells; host or cells: COS7; conditions: human GPR139, FIG. 2 A and B
T2 sequence (Q6DWJ6 1-353): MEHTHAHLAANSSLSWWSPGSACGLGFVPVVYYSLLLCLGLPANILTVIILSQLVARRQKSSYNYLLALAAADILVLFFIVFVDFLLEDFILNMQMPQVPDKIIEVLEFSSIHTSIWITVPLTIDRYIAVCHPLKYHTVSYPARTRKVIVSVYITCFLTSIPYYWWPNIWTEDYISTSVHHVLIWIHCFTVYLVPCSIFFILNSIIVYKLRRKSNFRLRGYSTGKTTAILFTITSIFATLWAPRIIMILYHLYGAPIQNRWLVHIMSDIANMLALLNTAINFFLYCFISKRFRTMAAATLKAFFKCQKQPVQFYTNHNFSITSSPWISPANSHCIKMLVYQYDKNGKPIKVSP
Excerpt: as §1

[3] = target: T2, GPR139; assay: calcium mobilization assay (FLIPR), GPR139 transiently expressed in HEK293 cells; assay type: cell-based; set-up: expressed in transfected cells; host or cells: HEK293; conditions: similar to GTPγS binding studies
Excerpt: For these experiments human GPR139 was transiently expressed in HEK293 cells and calcium mobilization was stimulated using L-Trp, L-Phe or their derivatives.

[4] = test system: GO2Q alone; assay: GTPγS binding assay, control membranes from COS7 cells expressing GO2Q alone (Ct-GO2Q); assay type: biochemical
Excerpt: Human (A and B) or mouse (C and D) GPR139 were co-transfected with chimeric G-protein GO2Q into COS7 cells. Cell membranes from transfected cells were used in GTPγS binding studies using various ligands at different concentrations to stimulate GPR139. Membranes from COS7 cells transfected by GO2Q were used as the controls (E and F).
(§2) In order identify the ligands for GPR139 two improvements in the detection assay were made to allow for the ligands to be detected. First, we chose to use a GTPγS binding assay instead of using live cultured cells. The GTPγS binding assay is a cell free system that uses the cell membrane of the cell(s) of interest rather than the live cell(s). One advantage of this assay is that potential ligands present in the cell culture media are washed away when the cell membrane is prepared. This reduces the basal level of signal and increase the chance of detecting receptor ligands when assessing compounds that activate the receptor. Second, a GO2Q chimeric G-protein was created to be co-expressed with GPR139 in order to increase the signal-to-noise ratio in the GTPγS binding assay. Historically, the Gi, Go coupled GPCRs offer much greater signal-to-noise ratio in GTPγS binding studies. For Gs and Gq coupled GPCRs, although ligand-stimulated specific signals can be detected in a GTPγS binding assay, the signal-to-noise ratios are often very small. To address this a chimeric GO2-Gq chimeric G-protein, GO2Q, with the N-terminus from Go2 protein and the C-terminus from Gq protein.
(§3) To test for compounds that activate GPR139, different amino acids and their derivatives (Table 2) were tested as ligands in the GTPγS binding assay using cell membranes from COS7 cells co-expressing GPR139 and GO2Q. Cell membrane from COS7 cells expressing GO2Q alone or co-expressing other GPCRs were also tested in GTPγS binding assay in parallel as controls. Each compound was tested in triplicate.

[5] = target: T2, GPR139; assay: GTPγS binding assay, membranes from COS7 cells co-expressing GPR139 and GO2Q, single concentration screen; assay type: biochemical; set-up: expressed in transfected cells; host or cells: COS7; conditions: for Activation levels of GPR139 (GTPγS binding signal), GPR139-GO2Q: 1 mM final concentration, single wells of triplicate, COS7 membranes co-expressing GPR139 and GO2Q
Method: as §2, §3

[6] = 1 mM final concentration, single wells of triplicate, COS7 membranes with GO2Q alone (control panel)

Row | SMILES | Activation levels (GTPγS binding signal), Ct-GO2Q [4, 6] | Activation levels of GPR139 (GTPγS binding signal), GPR139-GO2Q [5] | also measured
1 | Cn1cc(C[C@@H](N)C(=O)O)c2ccccc21 [1-methyl-D-Trp] |  |  | dose response activation of GPR139 (in words) [1]: specifically activate GPR139 in a dose-responsive manner; dose response activation of GPR139 (in words) [2]: specifically activate GPR139 in a dose-responsive manner; potency in calcium mobilization compared with L-Trp and L-Phe (in words) [3]: higher potencies
2 | Cn1cc(C[C@H](N)C(=O)O)c2ccccc21 [1-methyl-L-Trp] |  |  | dose response activation of GPR139 (in words) [1]: specifically activate GPR139 in a dose-responsive manner; dose response activation of GPR139 (in words) [2]: specifically activate GPR139 in a dose-responsive manner; potency in calcium mobilization compared with L-Trp and L-Phe (in words) [3]: higher potencies
3 | CNCC(O)c1ccc(O)c(O)c1 (stereo not shown) [Adrenaline] | 2240 and 2117 and 2045 | 2721 and 2624 and 2670 | 
4 | C[C@H](N)C(=O)O [Ala] | 1903 and 2049 and 2139 | 2363 and 2348 and 2439 | 
5 | CC(N)Cc1ccccc1 (stereo not shown) [Amphetamine, amphetamine] | 2331 and 2132 and 2001 | 7242 and 6744 and 7263 | dose response activation of GPR139 (in words) [1]: specifically activate GPR139 in a dose-responsive manner; activation of GPR139 in GTPγS binding assay (in words) ([5]; 1 mM): activated GPR139; dose response activation of GPR139 (in words) [2]: specifically activate GPR139 in a dose-responsive manner
6 | N=C(N)NCCC[C@H](N)C(=O)O [Arg] |  | 2806 and 2783 and 2528 | Activation levels (GTPγS binding signal), Ct-GO2Q [4]: 2171 and 2131 and 2255
7 | NC(=O)C[C@H](N)C(=O)O [Asn] | 2195 and 2142 and 2133 | 2806 and 2483 and 2547 | 
8 | N[C@@H](CC(=O)O)C(=O)O [Asp] | 2177 and 2137 and 2132 | 2758 and 2922 and 2925 | 
9 | N[C@@H](CS)C(=O)O [Cys] | 1928 and 2132 and 2114 | 2168 and 2458 and 2336 | 
10 | N[C@@H](CSSC[C@H](N)C(=O)O)C(=O)O [Cystine] | 2242 and 2149 and 2229 | 2501 and 2652 and 2258 | 
11 | N[C@H](Cc1ccccc1)C(=O)O [D-Phe, D-phenylalanine] |  |  | dose response activation of GPR139 (in words) [1]: specifically activate GPR139 in a dose-responsive manner; dose response activation of GPR139 (in words) [2]: specifically activate GPR139 in a dose-responsive manner
12 | N[C@H](Cc1c[nH]c2ccccc12)C(=O)O [D-Trp, D-tryptophan] |  |  | dose response activation of GPR139 (in words) [1]: specifically activate GPR139 in a dose-responsive manner; dose response activation of GPR139 (in words) [2]: specifically activate GPR139 in a dose-responsive manner
13 | NCCc1ccc(O)c(O)c1 [DA] | 2250 and 2213 and 2319 | 2688 and 2825 and 2708 | 
14 | NC(=O)CC[C@H](N)C(=O)O [Gln] | 2181 and 2327 and 2336 | 2583 and 2525 and 2766 | 
15 | N[C@@H](CCC(=O)O)C(=O)O [Glu] | 2242 and 2310 and 2311 | 2847 and 2837 and 2841 | 
16 | NCC(=O)O [Gly] | 1936 and 2133 and 2289 | 2560 and 2505 and 2414 | 

Row | SMILES | Activation levels (GTPγS binding signal), Ct-GO2Q [4, 6] | Activation levels of GPR139 (GTPγS binding signal), GPR139-GO2Q [5] | also measured
17 | NCCc1c[nH]cn1 [HA, histamine] | 2186 and 2204 and 2199 | 2737 and 2863 and 2899 | 
18 | O=C(O)[C@@H]1C[C@@H](O)CN1 [HO-Pro] | 2166 and 2152 and 2189 | 2825 and 2797 and 3109 | 
19 | N[C@@H](Cc1c[nH]cn1)C(=O)O [His] | 2308 and 2259 and 2197 | 2640 and 2499 | 
20 | CC[C@H](C)[C@H](N)C(=O)O [Ile] | 2266 and 2222 and 2253 | 2760 and 2542 and 2903 | 
21 | CC(C)C[C@H](N)C(=O)O [Leu] | 2194 and 2213 and 2167 | 2621 and 2544 and 2437 | 
22 | NCCCC[C@H](N)C(=O)O [Lys] | 2400 and 2138 and 2041 | 2433 and 2617 and 2589 | 
23 | CSCC[C@H](N)C(=O)O [Met] | 2173 and 2307 and 2276 | 2657 and 2829 and 2802 | 
24 | NCC(O)c1ccc(O)cc1 (stereo not shown) [Octopamine] | 2087 and 2140 and 2142 | 2554 and 2675 and 2831 | 
25 | O=C(O)[C@@H]1CCCN1 [Pro] | 2256 and 2235 and 2329 | 2719 and 2657 and 2786 | 
26 | N[C@@H](CO)C(=O)O [Ser] | 1975 and 2036 and 2164 | 2605 and 2458 and 2545 | 
27 | NCCc1c[nH]c2ccc(O)cc12 [Seretonin] | 2356 and 2154 and 2332 | 2839 and 2852 and 2920 | 
28 | C[C@@H](O)[C@H](N)C(=O)O [Thr] | 2210 and 2213 and 2008 | 2547 and 2507 and 2558 | 
29 | N[C@@H](Cc1ccc(O)cc1)C(=O)O [Tyr] | 2192 and 2191 and 2186 | 2752 and 2715 and 2921 | 
30 | NCCc1ccc(O)cc1 [Tyramine] | 2132 and 2277 and 2369 | 2883 and 2932 and 2873 | 
31 | CC(C)[C@H](N)C(=O)O [Val] | 2072 and 2083 and 1977 | 2632 and 2689 and 2533 | 
